In PubChem BioAssay AID248 (DTP/NCI, 2004):
Several values for one entry are separate records, joined by “and”; a condition that tells them apart may be missing. Equal entries are not always repeated. Toxic doses and inconclusive results are not listed. Rule as the data show it: active = T/C of 150% or more; inactive = T/C below 125%.

Tested on: L1210 leukemia ip in BDF1 mice, survival T/C
Test: NCI In Vivo Anticancer Drug Screen. Data for tumor model L1210 Leukemia (intraperitoneal) in B6D2F1 (BDF1) mice
Details: endpoint: mean survival time, higher = longer survival
Summary of the method: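 Ratio derived from survival: compound-dosed mice over vehicle-dosed mice, all bearing a transplantable tumor.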

[1] = dose: 25.0 mg/kg/injection, schedule: Q01DX009 (ip), vehicle: saline with Tween-80
[2] = dose: 50.0 mg/kg/injection, schedule: Q01DX009 (ip), vehicle: saline with Tween-80
[3] = dose: 100.0 mg/kg/injection, schedule: Q01DX009 (ip), vehicle: saline with Tween-80
[4] = dose: 100.0 mg/kg/injection, schedule: Q04DX003 (ip), vehicle: saline with Tween-80
[5] = dose: 200.0 mg/kg/injection, schedule: Q04DX003 (ip), vehicle: saline with Tween-80
[6] = dose: 400.0 mg/kg/injection, schedule: Q04DX003 (ip), vehicle: saline with Tween-80
[7] = dose: 100.0 mg/kg/injection, schedule: Q04DX002 (ip), vehicle: saline
[8] = dose: 100.0 mg/kg/injection, schedule: Q04DX003 (ip), vehicle: saline

Measured: T/C

Nc1nc2c(c(=O)[nH]1)N(Cc1ccccc1)C(CNc1ccc(C(=O)NC(CCC(=O)O)C(=O)O)cc1)CN2 (stereo unspecified)
inactive: dose: 100.0 mg/kg/injection, schedule: Q01DX001 (ip), vehicle: alkali diluted with saline 91 % of control | dose: 200.0 mg/kg/injection, schedule: Q01DX001 (ip), vehicle: alkali diluted with saline 94 % of control | dose: 400.0 mg/kg/injection, schedule: Q01DX001 (ip), vehicle: alkali diluted with saline 100 % of control

CCN(CC)CC(O)CNc1ccnc2cc(Cl)ccc12 (stereo unspecified)
inactive: [1] 97 % of control | [2] 86 % of control | [3] 97 % of control

CC(C)(C)NC(=O)Nc1cccc(OC(=O)NC(C)(C)C)c1
inactive: [4] 90 % of control | [5] 87 % of control | [6] 87 % of control

CCNCCNCC(Cc1ccccc1)c1ccccc1 (stereo unspecified)
inactive: dose: 25.0 mg/kg/injection, schedule: Q04DX002 (ip), vehicle: saline 86 % of control | dose: 50.0 mg/kg/injection, schedule: Q04DX002 (ip), vehicle: saline 105 % of control | [7] 93 % of control and 92 % of control

CCN(CC)c1nc(SCc2ccccc2Cl)ncc1C
inactive: dose: 100.0 mg/kg/injection, schedule: Q01DX Z (ip), vehicle: methylcellulose (MC) 93 % of control | dose: 200.0 mg/kg/injection, schedule: Q01DX Z (ip), vehicle: methylcellulose (MC) 98 % of control

CCCN=Cc1cc(Cl)ccc1O.CCCN=Cc1cc(Cl)ccc1O.[Ni]
inactive: dose: 100.0 mg/kg/injection, schedule: Q01DX008 (sc), vehicle: olive oil, sesame oil, peanut oil 104 % of control | dose: 200.0 mg/kg/injection, schedule: Q01DX008 (sc), vehicle: olive oil, sesame oil, peanut oil 98 % of control | dose: 400.0 mg/kg/injection, schedule: Q01DX008 (sc), vehicle: olive oil, sesame oil, peanut oil 86 % of control

CC(/C=N/NC(=O)c1cnccn1)=N/NC(=O)c1cnccn1
inactive: dose: 50.0 mg/kg/injection, schedule: Q01DX001 (ip), vehicle: water 108 % of control | dose: 100.0 mg/kg/injection, schedule: Q01DX001 (ip), vehicle: water 108 % of control | dose: 200.0 mg/kg/injection, schedule: Q01DX001 (ip), vehicle: water 103 % of control | dose: 400.0 mg/kg/injection, schedule: Q01DX001 (ip), vehicle: water 110 % of control

Cc1ncn(C)n1
inactive: [7] 94 % of control | dose: 200.0 mg/kg/injection, schedule: Q04DX002 (ip), vehicle: saline 112 % of control | dose: 400.0 mg/kg/injection, schedule: Q04DX002 (ip), vehicle: saline 98 % of control

CCN(CC)C(=O)COC(=O)c1cccc2[nH]ccc12
inactive: [4] 102 % of control | [5] 100 % of control | [6] 102 % of control

CCOC(=O)C1CCC(C(=O)OCC)N1Cc1ccccc1 (stereo unspecified)
inactive: dose: 100.0 mg/kg/injection, schedule: Q01DX009 (ip), vehicle: saline 101 % of control | dose: 200.0 mg/kg/injection, schedule: Q01DX009 (ip), vehicle: saline 104 % of control | dose: 400.0 mg/kg/injection, schedule: Q01DX009 (ip), vehicle: saline 108 % of control

O=C(Nc1cccc(C(F)(F)F)c1)Nc1ccc2sc(=S)[nH]c2c1
inactive: dose: 6.25 mg/kg/injection, schedule: Q01DX009 (ip), vehicle: saline with Tween-80 95 % of control | dose: 12.5 mg/kg/injection, schedule: Q01DX009 (ip), vehicle: saline with Tween-80 93 % of control | [1] 93 % of control | [2] 86 % of control | [3] 86 % of control | dose: 400.0 mg/kg/injection, schedule: Q01DX009 (ip), vehicle: saline with Tween-80 95 % of control

CCOC(=O)c1cnc(SC)nc1Nc1cccc(C(F)(F)F)c1
inactive: dose: 50.0 mg/kg/injection, schedule: Q01DX001 (ip), vehicle: gum acacia 96 % of control | dose: 87.0 mg/kg/injection, schedule: Q01DX009 (ip), vehicle: gum acacia 100 % of control | dose: 100.0 mg/kg/injection, schedule: Q01DX001 (ip), vehicle: gum acacia 89 % of control and 90 % of control | dose: 175.0 mg/kg/injection, schedule: Q01DX009 (ip), vehicle: gum acacia 99 % of control | dose: 200.0 mg/kg/injection, schedule: Q01DX001 (ip), vehicle: gum acacia 89 % of control | dose: 350.0 mg/kg/injection, schedule: Q01DX009 (ip), vehicle: gum acacia 94 % of control | dose: 400.0 mg/kg/injection, schedule: Q01DX001 (ip), vehicle: gum acacia 99 % of control

C/C=C(/C)N(C(C)=O)N(C(C)=O)c1ccc([N+](=O)[O-])cc1[N+](=O)[O-]
inactive: dose: 100.0 mg/kg/injection, schedule: Q01DX009 (ip), vehicle: other 103 % of control | [8] 104 % of control | dose: 200.0 mg/kg/injection, schedule: Q01DX009 (ip), vehicle: other 101 % of control | dose: 200.0 mg/kg/injection, schedule: Q04DX003 (ip), vehicle: saline 105 % of control | dose: 400.0 mg/kg/injection, schedule: Q01DX009 (ip), vehicle: other 97 % of control | dose: 400.0 mg/kg/injection, schedule: Q04DX003 (ip), vehicle: saline 107 % of control

CCN(CC)CCCC(C)Nc1c2ccc(Cl)cc2nc2cc(Cl)ccc12 (stereo unspecified)
inactive: dose: 25.0 mg/kg/injection, schedule: Q01DX009 (ip), vehicle: saline 92 % of control | dose: 25.0 mg/kg/injection, schedule: Q04DX003 (ip), vehicle: saline 100 % of control | dose: 50.0 mg/kg/injection, schedule: Q01DX009 (ip), vehicle: saline 95 % of control | dose: 50.0 mg/kg/injection, schedule: Q04DX003 (ip), vehicle: saline 98 % of control | [8] 93 % of control and 86 % of control

CCOC(=O)CN=NNc1ccc(C(=O)OCC)cc1
inactive: dose: 25.0 mg/kg/injection, schedule: Q01DX009 (ip), vehicle: other 95 % of control | dose: 50.0 mg/kg/injection, schedule: Q01DX009 (ip), vehicle: other 96 % of control | dose: 50.0 mg/kg/injection, schedule: Q04DX003 (ip), vehicle: other 105 % of control | dose: 100.0 mg/kg/injection, schedule: Q01DX001 (ip), vehicle: other 98 % of control | dose: 100.0 mg/kg/injection, schedule: Q04DX003 (ip), vehicle: other 104 % of control | dose: 200.0 mg/kg/injection, schedule: Q01DX001 (ip), vehicle: other 95 % of control

CC1(C)NC(=O)N(C(C)(C)C(=O)O)C1=O
inactive: dose: 100.0 mg/kg/injection, schedule: Q01DX001 (ip), vehicle: carboxymethylcellulose (CMC) 90 % of control | dose: 200.0 mg/kg/injection, schedule: Q01DX001 (ip), vehicle: carboxymethylcellulose (CMC) 95 % of control | dose: 400.0 mg/kg/injection, schedule: Q01DX001 (ip), vehicle: carboxymethylcellulose (CMC) 87 % of control

CCC(=O)OC1(c2ccccc2)CCN(CCCc2ccccc2Cl)CC1
inactive: dose: 3.13 mg/kg/injection, schedule: Q04DX002 (ip), vehicle: saline with Tween-80 103 % of control | dose: 6.25 mg/kg/injection, schedule: Q04DX002 (ip), vehicle: saline with Tween-80 106 % of control | dose: 12.5 mg/kg/injection, schedule: Q04DX002 (ip), vehicle: saline with Tween-80 103 % of control | dose: 25.0 mg/kg/injection, schedule: Q04DX002 (ip), vehicle: saline with Tween-80 106 % of control

NC(=O)Oc1c(Cl)cc(Cl)c(Cl)c1[N+](=O)[O-]
inactive: dose: 25.0 mg/kg/injection, schedule: Q04DX002 (ip), vehicle: Klucel (hydroxypropylcellulose) (HPC) 97 % of control | dose: 50.0 mg/kg/injection, schedule: Q04DX002 (ip), vehicle: Klucel (hydroxypropylcellulose) (HPC) 104 % of control | dose: 100.0 mg/kg/injection, schedule: Q04DX002 (ip), vehicle: Klucel (hydroxypropylcellulose) (HPC) 97 % of control

CC(=O)C(/C=N/C(=O)N(C)C)=C(/C)O
inactive: [4] 98 % of control | [5] 104 % of control | [6] 104 % of control

c1ccc(NCc2ccco2)cc1
inactive: [4] 106 % of control | [5] 98 % of control | [6] 106 % of control
